Assay results reported in patent US20250129430A1, “HIGH ATP-AFFINITY PROTEIN AS THERAPEUTIC TARGET FOR INTRACTABLE CANCER MOLECULAR SUBTYPES AND INHIBITOR THEREOF” (VeraVerse Co., Ltd., priority 2021, published 2025).

How the values were obtained:
Assay in all cases: Cell viability drug screen, 12-point dose-response AUC
Assay type in all cases: cell-based, human
AGS = conditions: 72 hours; for Average Area Under the Viability Curve (AUC), AUC norm value: AGS cells (non-SEM subtype)
Outline: (§1)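 Gastric cancer lines seeded 5×10^3 cells/well, dosed after 24 h with half-log 12-point compound dilutions (DMSO 0.5% control), then 72 h at 37 °C. Viability by luminescence, normalized to DMSO; AUC by trapezoidal method, averaged over repeats.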

Hs746T = conditions: 72 hours; for Average Area Under the Viability Curve (AUC), AUC norm value: Hs746T cells (SEM subtype)
Outline: (§2)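 Luminescent viability readings, taken 15 min after reagent addition at room temperature, were normalized to the 0.5% DMSO control to build 12-point dose-response curves. Trapezoidal integration gave the AUC. Cells had been plated at 5×10^3 per well and then exposed to half-log dilutions for 72 h.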

KATO3 = KATO3 cells, 72 hours
Outline: as §2

MKN1 = MKN1 cells, 72 hours
Outline: as §2

MKN28 = MKN28 cells, 72 hours
Outline: as §2

MKN45 = conditions: 72 hours; for Average Area Under the Viability Curve (AUC), AUC norm value: MKN45 cells (non-SEM subtype)
Outline: as §1

MKN74 = MKN74 cells, 72 hours
Outline: as §1

NCC19 = NCC19 cells, 72 hours
Outline: as §2

NCC20 = NCC20 cells, 72 hours
Outline: as §2

NCC24 = NCC24 cells, 72 hours
Outline: as §2

NCC59 = NCC59 cells, 72 hours
Outline: as §2

NCI_N87 = NCI_N87 cells, 72 hours
Outline: as §2

OCUM1 = OCUM1 cells, 72 hours
Outline: as §2

SK4 = conditions: 72 hours; for Average Area Under the Viability Curve (AUC), AUC norm value: SK4 cells (SEM subtype)
Outline: as §2

SNU16 = SNU16 cells, 72 hours
Outline: as §2

SNU1750 = conditions: 72 hours; for Average Area Under the Viability Curve (AUC), AUC norm value: SNU1750 cells (SEM subtype)
Outline: as §2

SNU1967 = SNU1967 cells, 72 hours
Outline: as §2

SNU1 = SNU1 cells, 72 hours
Outline: as §2

SNU216 = conditions: 72 hours; for Average Area Under the Viability Curve (AUC), AUC norm value: SNU216 cells (non-SEM subtype)
Outline: as §1

SNU484 = conditions: 72 hours; for Average Area Under the Viability Curve (AUC), AUC norm value: SNU484 cells (SEM subtype)
Outline: as §2

SNU601 = SNU601 cells, 72 hours
Outline: as §2

SNU620 = SNU620 cells, 72 hours
Outline: as §2

SNU638 = SNU638 cells, 72 hours
Outline: as §2

SNU668 = conditions: 72 hours; for Average Area Under the Viability Curve (AUC), AUC norm value: SNU668 cells (SEM subtype)
Outline: as §2

SNU719 = SNU719 cells, 72 hours
Outline: as §1

YCC11 = conditions: 72 hours; for Average Area Under the Viability Curve (AUC), AUC norm value: YCC11 cells (SEM subtype)
Outline: as §2

YCC2 = YCC2 cells, 72 hours
Outline: as §2

YCC3 = YCC3 cells, 72 hours
Outline: as §2

FU97 = test system: FU97; set-up: Average Area Under the Viability Curve (AUC), AUC norm value: scale not given here; conditions: FU97 cells, 72 hours
Outline: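 Trapezoidal AUC of a 12-point, DMSO-normalized dose-response curve. Luminescent viability was measured after 72 h of exposure at 37° C to half-log serial dilutions (0.5% DMSO control), dosed 24 h after plating FU97 cells at 5×10^3 per well.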

SMILES: CC[C@@H]1C(=O)N(C)c2cnc(Nc3ccc(C(=O)NC4CCN(C)CC4)cc3OC)nc2N1C1CCCC1 [BI 2536]
- Average Area Under the Viability Curve (AUC), AUC norm value (AGS): −1.22
- Average Area Under the Viability Curve (AUC), AUC norm value (Hs746T): 1.951
- Average Area Under the Viability Curve (AUC), AUC norm value (KATO3): 4.704
- Average Area Under the Viability Curve (AUC), AUC norm value (MKN1): −0.2123
- Average Area Under the Viability Curve (AUC), AUC norm value (MKN28): −1.69
- Average Area Under the Viability Curve (AUC), AUC norm value (MKN45): 0.09661
- Average Area Under the Viability Curve (AUC), AUC norm value (MKN74): −0.6584
- Average Area Under the Viability Curve (AUC), AUC norm value (NCC19): 3.475
- Average Area Under the Viability Curve (AUC), AUC norm value (NCC20): 0.5722
- Average Area Under the Viability Curve (AUC), AUC norm value (NCC24): −0.8832
- Average Area Under the Viability Curve (AUC), AUC norm value (NCC59): 3.556
- Average Area Under the Viability Curve (AUC), AUC norm value (NCI_N87): −1.006
- Average Area Under the Viability Curve (AUC), AUC norm value (OCUM1): 2.226
- Average Area Under the Viability Curve (AUC), AUC norm value (SK4): −1.128
- Average Area Under the Viability Curve (AUC), AUC norm value (SNU16): 0.02031
- Average Area Under the Viability Curve (AUC), AUC norm value (SNU1750): −0.8076
- Average Area Under the Viability Curve (AUC), AUC norm value (SNU1967): 0.0237
- Average Area Under the Viability Curve (AUC), AUC norm value (SNU1): −1.064
- Average Area Under the Viability Curve (AUC), AUC norm value (SNU216): 2.038
- Average Area Under the Viability Curve (AUC), AUC norm value (SNU484): 0
- Average Area Under the Viability Curve (AUC), AUC norm value (SNU601): 0.0215
- Average Area Under the Viability Curve (AUC), AUC norm value (SNU620): −1.078
- Average Area Under the Viability Curve (AUC), AUC norm value (SNU638): 0.1863
- Average Area Under the Viability Curve (AUC), AUC norm value (SNU668): −0.4211
- Average Area Under the Viability Curve (AUC), AUC norm value (SNU719): 3.291
- Average Area Under the Viability Curve (AUC), AUC norm value (YCC11): −0.3817
- Average Area Under the Viability Curve (AUC), AUC norm value (YCC2): −0.1875
- Average Area Under the Viability Curve (AUC), AUC norm value (YCC3): 3.315
- Average Area Under the Viability Curve (AUC), AUC norm value (FU97): −0.4841

SMILES: CCCCc1nc2cc(/C=C/C(=O)NO)ccc2n1CCN(CC)CC [SB939 (Pracinostat), Pracinostat]
- area under the viability curve (AUC), normalized (AGS; AGS cells, 12-point dose-response): −1.799
- area under the viability curve (AUC), normalized (Hs746T; Hs746T cells, 12-point dose-response): 0.7098
- area under the viability curve (AUC), normalized (KATO3; 12-point dose-response): 0.2173
- area under the viability curve (AUC), normalized (MKN1; 12-point dose-response): 0.232
- area under the viability curve (AUC), normalized (MKN28; 12-point dose-response): −0.5866
- area under the viability curve (AUC), normalized (MKN45; MKN45 cells, 12-point dose-response): 1.672
- area under the viability curve (AUC), normalized (MKN74; 12-point dose-response): 0.3806
- area under the viability curve (AUC), normalized (NCC19; 12-point dose-response): 0.6538
- area under the viability curve (AUC), normalized (NCC20; 12-point dose-response): −0.08068
- area under the viability curve (AUC), normalized (NCC24; 12-point dose-response): −1.137
- area under the viability curve (AUC), normalized (NCC59; 12-point dose-response): 1.053
- area under the viability curve (AUC), normalized (NCI_N87; 12-point dose-response): −0.6724
- area under the viability curve (AUC), normalized (OCUM1; 12-point dose-response): 0.7195
- area under the viability curve (AUC), normalized (SK4; SK4 cells, 12-point dose-response): −0.454
- area under the viability curve (AUC), normalized (SNU16; 12-point dose-response): −1.067
- area under the viability curve (AUC), normalized (SNU1750; SNU1750 cells, 12-point dose-response): −1.156
- area under the viability curve (AUC), normalized (SNU1967; 12-point dose-response): −0.4581
- area under the viability curve (AUC), normalized (SNU1; 12-point dose-response): −1.4
- area under the viability curve (AUC), normalized (SNU216; SNU216 cells, 12-point dose-response): 0.6217
- area under the viability curve (AUC), normalized (SNU484; SNU484 cells, 12-point dose-response): 0.208
- area under the viability curve (AUC), normalized (SNU601; 12-point dose-response): 0.1827
- area under the viability curve (AUC), normalized (SNU620; 12-point dose-response): −1.199
- area under the viability curve (AUC), normalized (SNU638; 12-point dose-response): −0.278
- area under the viability curve (AUC), normalized (SNU668; SNU668 cells, 12-point dose-response): 0.519
- area under the viability curve (AUC), normalized (SNU719; 12-point dose-response): 2.187
- area under the viability curve (AUC), normalized (YCC11; YCC11 cells, 12-point dose-response): −0.768
- area under the viability curve (AUC), normalized (YCC2; 12-point dose-response): −0.02045
- area under the viability curve (AUC), normalized (YCC3; 12-point dose-response): 1.403
- area under the viability curve (AUC), normalized (FU97; 12-point dose-response): 0

SMILES: CC(C)C[C@H](NC(=O)[C@H](CCc1ccccc1)NC(=O)CN1CCOCC1)C(=O)N[C@@H](Cc1ccccc1)C(=O)N[C@@H](CC(C)C)C(=O)[C@@]1(C)CO1 [Carfilzomib (PR-171), Carfilzomib]
- Average Area Under the Viability Curve (AUC), AUC norm value (AGS): −0.131
- Average Area Under the Viability Curve (AUC), AUC norm value (Hs746T): −1.399
- Average Area Under the Viability Curve (AUC), AUC norm value (KATO3): 0.1004
- Average Area Under the Viability Curve (AUC), AUC norm value (MKN1): 0.1771
- Average Area Under the Viability Curve (AUC), AUC norm value (MKN28): −0.7065
- Average Area Under the Viability Curve (AUC), AUC norm value (MKN45): 0.5553
- Average Area Under the Viability Curve (AUC), AUC norm value (MKN74): −0.3162
- Average Area Under the Viability Curve (AUC), AUC norm value (NCC19): 1.562
- Average Area Under the Viability Curve (AUC), AUC norm value (NCC20): −2.002
- Average Area Under the Viability Curve (AUC), AUC norm value (NCC24): −0.8995
- Average Area Under the Viability Curve (AUC), AUC norm value (NCC59): 0.8592
- Average Area Under the Viability Curve (AUC), AUC norm value (NCI_N87): 0.5098
- Average Area Under the Viability Curve (AUC), AUC norm value (OCUM1): 1.245
- Average Area Under the Viability Curve (AUC), AUC norm value (SK4): −0.2415
- Average Area Under the Viability Curve (AUC), AUC norm value (SNU16): −1.3183
- Average Area Under the Viability Curve (AUC), AUC norm value (SNU1750): −0.9787
- Average Area Under the Viability Curve (AUC), AUC norm value (SNU1967): −0.5586
- Average Area Under the Viability Curve (AUC), AUC norm value (SNU1): 0.1391
- Average Area Under the Viability Curve (AUC), AUC norm value (SNU216): 0
- Average Area Under the Viability Curve (AUC), AUC norm value (SNU484): −0.7602
- Average Area Under the Viability Curve (AUC), AUC norm value (SNU601): 1.489
- Average Area Under the Viability Curve (AUC), AUC norm value (SNU620): −0.4242
- Average Area Under the Viability Curve (AUC), AUC norm value (SNU638): 0.1464
- Average Area Under the Viability Curve (AUC), AUC norm value (SNU668): 1.899
- Average Area Under the Viability Curve (AUC), AUC norm value (SNU719): 0.5178
- Average Area Under the Viability Curve (AUC), AUC norm value (YCC11): −0.7607
- Average Area Under the Viability Curve (AUC), AUC norm value (YCC2): 0.8534
- Average Area Under the Viability Curve (AUC), AUC norm value (YCC3): 1.747
- Average Area Under the Viability Curve (AUC), AUC norm value (FU97): −0.1687
